{"source": "patent US20250360233A1", "about": "“Central Neurodegeneration Imaging Agent and Method of Preparing the Same” (National Atomic Research Institute, priority 2024, published 2025)", "key": {"[1]": {"system": "mouse brains (PD brain lesions)", "test": "PET brain imaging of Rotenone-induced Parkinson's disease mice versus Sham", "type": "in vivo", "settings": "for F-18 images of PD brains compared with the control group (Sham): Rotenone tube feeding 12 weeks", "excerpt": "Regarding its application, the present invention entails feeding Rotenone to mice by tube feeding continuously for 12 weeks to induce the mouse brains to manifest Parkinson's disease (PD) symptom animal mode for function as the experimental group, treating mice with placebo to serve as the control group (Sham) without manifesting any PD lesions, performing imaging of the mouse brains with an F-18-FE-PE21, F-18-FDOPA and F-18-α-syn3 respectively, displaying the longitudinal-section and cross-section images of the mouse brains, and comparing the intake of the F-18 imaging agent into the mouse brains."}, "[2]": {"test": "F-18-α-syn3 serum stability", "type": "in vitro ADME", "settings": "serum at 37° C., after a hour", "description": "Moreover, the present invention discloses giving considerations to the F-18-α-syn3 formula and serum stability and thus conducting F-18-α-syn3 formula research to attain a recycling rate as high as 90.1%. Regarding a test of F-18-α-syn3 serum stability, medications are placed within serum at 37° C., achieving radioactive chemical purity of 91.5% even after a hour."}, "[3]": {"test": "parallel artificial membrane permeation assay (PAMPA) simulating the blood-brain barrier", "type": "in vitro ADME", "excerpt": "(§1) Therefore, the present invention not only effectively reduces the logP value but also passes a test of affinity, specificity, and parallel artificial membrane."}, "amyloid-β(Aβ)": {"biological_target": "amyloid-β(Aβ) (Homo sapiens, UniProt P05067)", "sequence (P05067 672-713 limits assumed)": "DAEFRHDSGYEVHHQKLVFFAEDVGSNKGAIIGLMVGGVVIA", "test": "affinity comparison, amyloid-β", "type": "binding", "settings": "read-out: amyloid-β(Aβ) value compared with the α-synuclein IC50", "excerpt": "as §1"}, "[4]": {"test": "logP analysis of the F-18-α-syn3", "type": "physicochemical", "excerpt": "The experimental results of the logP analysis of the F-18-α-syn3 of the present invention are as follows:\nThe above data is about testing the logP of the F-18-α-syn3 labeling finished product solution repeatedly. The result confirms that all the logP values range from 2 to 3."}, "α-synuclein": {"biological_target": "α-synuclein (Homo sapiens, UniProt P37840)", "test": "test tube competition test, α-synuclein", "settings": "read-out: IC50 (50% binding inhibition)", "excerpt": "as §1"}, "[5]": {"settings": "Rotenone PD mice versus Sham, PET"}}, "note": "Where two headings read alike, the source gives them in different places.", "data": [{"compound": "N[C@@H](Cc1cc(O)c(O)cc1[18F])C(=O)O", "note": "[F-18-FDOPA]", "values": [{"measurement": "selectivity in terms of brain distribution", "setting": "[1]; [5]", "result": "no selectivity"}, {"measurement": "F-18 images of PD brains compared with the control group (Sham)", "setting": "[1]; mice, PET", "result": "no difference and no specificity"}]}, {"compound": "Cc1ccc([C@H]2C[C@@H]3CC[C@H]([C@H]2C(=O)OCC[18F])N3C/C=C/I)cc1", "note": "[F-18-FE-PE21]", "values": [{"measurement": "brain intake, experimental group versus control group", "setting": "[1]; [5]", "result": "lower"}, {"measurement": "F-18 images of PD brains compared with the control group (Sham)", "setting": "[1]; mice, PET", "result": "no difference and no specificity"}]}, {"compound": "O=C1/C(=C\\C=C\\c2ccc([N+](=O)[O-])cc2)c2ccccc2N1CCOCCF", "note": "[F-18-α-syn3, (Z)-1-(2-(2-fluoroethoxy)ethyl)-3-((E)-3-(4-nitrophenyl)allylidene) indolin-2-one]", "values": [{"measurement": "radioactive chemical purity in serum", "setting": "[2]", "result": 91.5, "unit": "%"}, {"measurement": "concentration that ensures the satisfaction of PAMPA", "setting": "[3]", "result": "at least 6 nM"}, {"measurement": "PAMPA pass rate", "setting": "[3]; concentration of 60 nM", "result": 56.25, "unit": "%"}, {"measurement": "IC50", "setting": "amyloid-β(Aβ)", "result": 142, "unit": "nM"}, {"measurement": "logP", "setting": "[4]; 50 uCi, read-out: logP", "result": 2.63}, {"measurement": "logP", "setting": "[4]; end solution, 22 uCi, read-out: logP", "result": 2.41}, {"measurement": "logP", "setting": "[4]; end solution, 50 uCi, read-out: logP", "result": 2.07}, {"measurement": "logP", "setting": "[4]; labeling finished product solution tested repeatedly, read-out: logP, range of all repeated tests", "result": "2 to 3"}, {"measurement": "background absorption level", "setting": "[1]; [5]", "result": "obviously lower"}, {"measurement": "F-18 images of PD brains compared with the control group (Sham)", "setting": "[1]; mice, PET", "result": "clearer F-18 images"}, {"measurement": "passage through the blood-brain barrier (BBB) into mouse brains", "setting": "[1]; mice", "result": "can pass through the blood-brain barrier"}, {"measurement": "IC50", "setting": "α-synuclein", "result": 172, "unit": "nM"}]}]}
